Key:
[1] = RP, Waters ACQUITY UPLC BEH C18, 100 × 1 mm, 1.7 µm, 50 °C, 0.3 mL/min, estimated dead time 0.17 min; A: water + 10 mM ammonium bicarbonate; B: 10% water + 90% methanol + 10 mM ammonium bicarbonate; gradient (min/%B) 0/0 15/100 21/100 22/0 30/0; details: stereoisomer not certain
[2] = RP, Waters ACQUITY UPLC BEH C18, 100 × 1 mm, 1.7 µm, 50 °C, 0.3 mL/min, estimated dead time 0.17 min; A: water + 0.1% formic acid + 20 mM ammonium formate; B: methanol + 0.1% formic acid + 20 mM ammonium formate; gradient (min/%B) 0/0 15/100 21/100 22/0 30/0; details: stereoisomer not certain

LC retention time [1] [min] | LC retention time [2] [min] | Compound
14.3 | 14 | O=C(C1CCCCC1)N1CC(=O)N2CCc3ccccc3C2C1 (stereo not given) [Praziquantel]
12.2 | 12 | CC12C=CC(=O)C=C1CCC1C2C(=O)CC2(C)C1CCC2(O)C(=O)CO (stereo not given) [Prednisone]
13.8 | 8.85 | CCCNC(C)C(=O)Nc1ccccc1C (stereo not given) [Prilocaine]
12.6 | 14.4 | COC(=O)c1ccccc1S(=O)(=O)NC(=O)Nc1nc(OC(F)F)cc(OC(F)F)n1 [Primisufuron-methyl]
15.9 | 15.5 | CC(=O)C1CCC2C3CCC4=CC(=O)CCC4(C)C3CCC12C (stereo not given) [Progesterone]
16.8 | 12.5 | CC(CN1c2ccccc2Sc2ccccc21)N(C)C (stereo not given) [Promethazin]
12.2 | 9.88 | CC(C)Nc1nc(NC(C)C)[nH]c(=O)n1 [Propazine-2-hydroxy]
12.6 | 12.3 | Cc1c(C(C)C)c(=O)n(-c2ccccc2)n1C [Propyphenazone]
13.6 | 9.28 | CN1CCc2cc3c(cc2C(=O)Cc2ccc4c(c2C1)OCO4)OCO3 [Protopin]
14.6 | 14.7 | COC1C=COC2(C)Oc3c(C)c(O)c4c(O)c(c5c(nc6cc(C)ccn65)c4c3C2=O)NC(=O)C(C)=CC=CC(C)C(O)C(C)C(O)C(C)C(OC(C)=O)C1C (stereo not given) [Rifaximin]
14.7 | 10.5 | Cc1nc2n(c(=O)c1CCN1CCC(c3noc4cc(F)ccc34)CC1)CCCC2 [Risperidone]
16.3 | 15.9 | CC(C)c1nc(CN(C)C(=O)NC(C(=O)NC(Cc2ccccc2)CC(O)C(Cc2ccccc2)NC(=O)OCc2cncs2)C(C)C)cs1 (stereo not given) [Ritonavir]
15.2 | 8.08 | CCCN(CCC)CCc1cccc2c1CC(=O)N2 [Ropinirole]
16.9 | 14.3 | CCC1OC(=O)C(C)C(OC2CC(C)(OC)C(O)C(C)O2)C(C)C(OC2OC(C)CC(N(C)C)C2O)C(C)(O)CC(C)C(=NOCOCCOC)C(C)C(O)C1(C)O (stereo not given) [Roxithromycin]
4.78 | 9.72 | O=C(O)c1ccccc1O [Salicylic acid]
12 | 9.91 | CCNc1nc(NC(C)CC)[nH]c(=O)n1 (stereo not given) [Sebuthylazine-2-hydroxy]
9.04 | 7.39 | CCNc1nc(NCC)[nH]c(=O)n1 [Simazine 2-Hydroxy]
19.2 | 16.2 | CCOC1C(OC)C(C)OC(OC2CC3CCC4C5CC(=O)OC(CC)CCCC(OC6CCC(N(C)C)C(C)O6)C(C)C(=O)C5=CC4C3C2)C1OC (stereo not given) [Spinetoram]
2.61 | 6 | Nc1ccc(S(=O)(=O)Nc2ncccn2)cc1 [Sulfadiazin]

LC retention time [1] [min] | LC retention time [2] [min] | Compound
6.19 | 8.86 | COc1ncnc(NS(=O)(=O)c2ccc(N)cc2)c1OC [Sulfadoxine]
5.61 | 7.14 | Cc1ccnc(NS(=O)(=O)c2ccc(N)cc2)n1 [Sulfamerazine]
6.84 | 6.62 | CC[N+]1([O-])CCCC1CNC(=O)c1cc(S(N)(=O)=O)ccc1OC (stereo not given) [Sulpiride N-Oxide]
18.4 | 15.8 | CCC(=C(c1ccccc1)c1ccc(OCCN(C)C)cc1)c1ccccc1 [Tamoxifen]
14.6 | 14.2 | CCCc1nc2c(C)cc(-c3nc4ccccc4n3C)cc2n1Cc1ccc(-c2ccccc2C(=O)O)cc1 [Telmisartan]
18.7 | 14 | CN(CC=CC#CC(C)(C)C)Cc1cccc2ccccc12 [Terbinafine]
15.2 | 11.4 | CCCCNc1ccc(C(=O)OCCN(C)C)cc1 [Tetracain]
12 | 11.7 | CCCCOCCOCCOCCOCCO [Tetraethyleneglycol monobutyl ether]
9.08 | 9.01 | COCCOCCOCCOCCOC [Tetraglyme]
14.8 | 9.6 | COc1cc2c(cc1OC)C1Cc3ccc(OC)c(OC)c3CN1CC2 (stereo not given) [Tetrahydropalmatin]
5.35 | 5.38 | O=C1NC(=O)C2CC=CCC12 (stereo not given) [Tetrahydrophthalimide]
9.63 | 9.49 | CN(C)C(=S)SC(=S)N(C)C [Tetramethylthiuram monosulfide]
5.86 | 5.9 | Cn1cnc2c1c(=O)[nH]c(=O)n2C [Theobromine]
10.8 | 6.49 | CCN(CC)CCNC(=O)c1cc(S(C)(=O)=O)ccc1OC [Tiapride]
13.2 | 9.08 | CC(C)(C)NCC(O)COc1nsnc1N1CCOCC1 (stereo not given) [Timolol]
14.4 | 16.7 | Cc1c(Cl)cccc1Nc1ccccc1C(=O)O [Tolfenamics<e4>ure]
17 | 16.6 | Cc1cccc(N(C)C(=S)Oc2ccc3ccccc3c2)c1 [Tolnaftate]
14.6 | 9.9 | Cc1cccc2n[nH]nc12 [Tolyltriazole]

Compound | LC retention time [1] [min] | LC retention time [2] [min]
CCCOP(=S)(OCCC)SCC(=O)N1CCCCC1C (stereo not given) [Piperophos] | 16.6 | 16.3
CCN(CC)c1nc(C)cc(OP(=S)(OC)OC)n1 [Pirimiphos-methyl] | 16.3 | 15.8
COc1nc(NC(C)C)nc(NC(C)C)n1 [Prometon] | 14.1 | 12.2
CCCOc1nn(C(=O)NS(=O)(=O)c2ccccc2C(=O)OC)c(=O)n1C [Propoxycarbazone] | 9.89 | 11.8
CCC(=O)OC(Cc1ccccc1)(c1ccccc1)C(C)CN(C)C (stereo not given) [Propoxyphene] | 16.8 | 12.5
OC(Cc1ccccc1Cl)(Cn1cncn1)C1(Cl)CC1 (stereo not given) [Prothioconazole-desthio] | 15.3 | 15
CCOP(=S)(OCC)Oc1ccc(=O)n(-c2ccccc2)n1 [Pyridaphenthion] | 14.8 | 14.6
CC=C1CC(C)C(O)(CO)C(=O)OCC2=CC[N+]3([O-])CCC(OC1=O)C23 (stereo not given) [Retrorsine N-oxide] | 8.61 | 7.74
CC=C1CC(C)C(O)(CO)C(=O)OCC2=CCN3CCC(OC1=O)C23 (stereo not given) [Retrorsine] | 11.6 | 7.62
CC=C1CC(C)C(C)(O)C(=O)OCC2=CC[N+]3([O-])CCC(OC1=O)C23 (stereo not given) [Senecionine N-oxide] | 9.78 | 8.82
CC=C1CC(C)C(C)(O)C(=O)OCC2=CCN3CCC(OC1=O)C23 (stereo not given) [Senecionine] | 12.5 | 8.65
C=C1CC(=CC)C(=O)OC2CC[N+]3([O-])CC=C(COC(=O)C1(C)O)C23 (stereo not given) [Seneciphylline N-oxide] | 8.91 | 8.11
C=C1CC(=CC)C(=O)OC2CCN3CC=C(COC(=O)C1(C)O)C23 (stereo not given) [Seneciphylline] | 11.8 | 7.89
C=C1C(=O)OC2CC[N+]3([O-])CC=C(COC(=O)C(C)(O)C(C)C1C)C23 (stereo not given) [Senecivernine N-oxide] | 9.7 | 8.69
C=C1C(=O)OC2CCN3CC=C(COC(=O)C(C)(O)C(C)C1C)C23 (stereo not given) [Senecivernine] | 12.7 | 8.55
CC=C1CC(C)C(C)(O)C(=O)OCC2=CCN(C)CCC(OC1=O)C2=O (stereo not given) [Senkirkine] | 10.2 | 9.47
CC1CCC2(NC1)OC1CC3C4CC=C5CC(O)CCC5(C)C4CCC3(C)C1C2C (stereo not given) [Solasodin] | 18 | 14.3
O=C1C=CCC2C3CCCN4CCCC(CN12)C34 (stereo not given) [Sophocarpine] | 12.8 | 5.39
CCC(C)(C)C(=O)OC1=C(c2ccc(Cl)cc2Cl)C(=O)OC12CCCCC2 [Spirodiclofen] | 18 | 17.6
Cc1cc(C)c(C2=C(OC(=O)CC(C)(C)C)C3(CCCC3)OC2=O)c(C)c1 [Spiromesifen] | 17.7 | 17.3
COc1cc2c(c3oc4cccc(O)c4c(=O)c13)C1C=COC1O2 (stereo not given) [Sterigmatocystin] | 15 | 14.6
CC12CCC3C(CCC4(O)CC(O)CCC34C=O)C1(O)CCC2C1=CC(=O)OC1 (stereo not given) [Strophanthidin] | 11.3 | 11
CNC(=O)N(C)c1nnc(C(C)(C)C)s1 [Tebuthiuron] | 12.1 | 11.9
CS(=O)(=O)c1ccc(C(=O)C2C(=O)CCCC2=O)c(Cl)c1COCC(F)(F)F [Tembotrione] | 15.6 | 13.4
COP(=S)(OC)Oc1ccc(Sc2ccc(OP(=S)(OC)OC)cc2)cc1 [Temephos] | 17.2 | 16.8
Cc1[nH]c(=O)n(C(C)(C)C)c(=O)c1Cl [Terbacil] | 12 | 11.8
CN1C(=O)CN=C(C2=CCCCC2)c2cc(Cl)ccc21 [Tetrazepam] | 15.7 | 15
CCN(CC)C(=O)SCc1ccc(Cl)cc1 [Thiobencarb] | 16.4 | 16
